# Test results from US20090176817A1, “Method of Treatment of Diarrhea-Predominant Irritable Bowel Syndrome in a Subject” (priority 2005, published 2009).
# Where two headings read alike, the source gives them in different places.
# Tests used:
# [1] = both, human, in vivo
# Description: Diurnal variations in cilansetron pharmacokinetics have been evaluated in a randomized, double-blind, placebo-controlled, 2-way crossover study in 9 male and 9 female healthy subjects, aged 21 to 39 years. Subjects were randomized to receive 2 treatments (cilansetron 16 mg tablet and placebo) during the 2 treatment periods. During each treatment period, subjects received a single dose of their assigned treatment on the first day (Day 1), after which they received the same treatment TID for 4 days (Days 2-5). There was a 10-day washout period between treatment periods. Subjects were fasted for at least 2 hours before and following each dose, and heavy physical activity was restricted. Serial blood samples for the measurement of multiple-dose pharmacokinetics of cilansetron were collected up to 24 hours postdose on Day 5.
# [2] = test system: diarrhea-predominant IBS subjects; experiment: Study S241.3.006: IBS-QOL; type: in vivo, human; conditions: for Percentage of Subjects Who Worsened from Baseline: IBS-QOL Overall Score: S241.3.006, 2 mg TID, observed value
# Excerpt: Studies S24 1.3.OO6, S24 1.3.0 1 1, and S24 1.3.009 used the following efficacy measurements: • The subjects answered the following three questions with “yes” or “no” using a phone diary at the end of each week: • a) During the last week, did you experience adequate relief of your IBS symptoms, such as abdominal pain, abdominal discomfort, abnormal bowel habits? • b) During the last week, did you experience adequate relief of your abdominal pain and/or discomfort? • c) During the last week, did you experience adequate relief of your abnormal bowel habits? • The subjects rated the following symptoms using the phone diary at the end of each day: • abdominal pain/discomfort (five-point scale); • stool consistency (seven-point Bristol Stool Scale); • stool frequency (number of bowel movements each day); • urgency (five-point scale); • straining (yes or no); • feeling of incomplete defecation (yes or no); • bloating or feeling of abdominal distension (five-point scale). • In Studies S241 A006 and S241.3.009, subjects completed the IBS-QOL Survey at Baseline (Day 1) and at the end of treatment. In Study S24 1.3.0 1 1, subjects completed the IBS-QOL Survey at Baseline (Day 1), at the end of the three-month treatment period, and at the end of rerandomized treatment.
# Other secondary efficacy parameters for all three studies included: • Responder rate for the weekly diary questions on adequate relief at each month, where a responder for a month (monthly responder) was defined as a subject who answered the weekly question with “yes” at least twice for that month. The responder rate was the percentage of responders within a treatment group. The all-month responder rate for the weekly diary questions on adequate relief was also evaluated, where an all-month responder was defined as a subject who answered the weekly question with “yes” at least twice for each month. The all-month responder rate was the percentage of all-month responders within a treatment group; • Adequate relief rate for the weekly diary questions was calculated for each subject as the number of weekly assessments with adequate relief (“yes”) divided by the total number of weekly assessments; • Percentage of subjects with adequate relief for the weekly diary questions at each week; • Daily diary questions regarding abdominal pain/discomfort (five-point scale), stool consistency (seven-point scale), stool frequency (number of bowel movements each day), straining (yes or no), urgency (five-point scale), feeling of incomplete evacuation (yes or no), and bloating or feeling of abdominal distention (five-point scale); • QOL data assessed by the IBS-QOL questionnaire; and • Question to determine the interruption of activities.
# [3] = both, human, in vivo; remark: listed apart in the source
# Description: Two randomized, double-blind, placebo controlled, balanced incomplete block design, crossover studies evaluated the single- and multiple-dose pharmacokinetics of oral cilansetron over a 8 mg to 32 mg dose range. In both studies, subjects were randomized to receive two of three treatments during 2 treatment periods. In one study (12 male and 13 female subjects, aged 23 to 36 years), subjects received 8 mg cilansetron, 16 mg cilansetron, or placebo, while in another study (12 males and 13 females, aged 23 to 41 years), subjects received 16 mg cilansetron, 32 mg cilansetron, or placebo. During each treatment period, subjects received a single dose of their assigned treatment on the first day, followed by a 3-day washout, after which they received the same treatment TID for 5 days.
# There was a 5-6 day washout period between treatment periods. Doses on the mornings of pharmacokinetic days were administered under fasted conditions. Serial blood sampling and urine collection was performed up to 12 hours following morning dosing on the first day (single dose) and on the last multiple dosing day of each treatment period, and cilansetron pharmacokinetic parameters were evaluated.
# In two randomized, double-blind, placebo controlled, balanced incomplete block design, crossover studies evaluating the single- and multiple-dose pharmacokinetics of oral cilansetron over a 8 mg to 32 mg dose range, subjects were randomized to receive two of three treatments during 2 treatment periods. In Study S.241.1.101; (12 male and 13 female subjects, aged 23 to 36 years), subjects received 8 mg cilansetron, 16 mg cilansetron, or placebo, while in Study S.24 1.1.102; (12 males and 13 females, aged 23 to 41 years), subjects received 16 mg cilansetron, 32 mg cilansetron, or placebo. During each treatment period, subjects received a single dose of their assigned treatment on the first day, followed by a 3-day washout, after which they received the same treatment TID for 5 days. There was a 5-6 day washout period between treatment periods. Doses on the mornings of pharmacokinetic days were administered under fasted conditions. Serial blood sampling and urine collection was performed up to 12 hours following morning dosing on the first day (single dose) and on the last multiple dosing day of each treatment period, and cilansetron pharmacokinetic parameters were evaluated.
# [4] = clinical; type: in vitro ADME; conditions: both sexes, human, serum, % free in serum
# Description: Steady state serum samples for measurement of cilansetron protein binding were collected at predose, and 1 and 1.5 hours postdose on Day 6.
structure (smiles),measurement,setting,value
"Cc1nccn1C[C@H]1CCc2c(c3cccc4c3n2CCC4)C1=O [Cilansetron, (R)-(−)-4,5,6,8,9,10-hexahydro-10-[(2-methyl-1H-imidazol-1-yl)methyl]-11H-pyrido-[3,2,1-jk]-carbazol-11-one]",AUC ratio 0-8 h/8-16 h,[1],"106 (99, 115) %"
same,AUC ratio 0-8 h/16-24 h,[1],"110 (103, 119) %"
same,AUC ratio 8-16 h/16-24 h,[1],"104 (96, 111) %"
same,Cmax ratio 0-8 h/8-16 h,[1],"130 (111, 153) %"
same,Cmax ratio 0-8 h/16-24 h,[1],"133 (113, 157) %"
same,Cmax ratio 8-16 h/16-24 h,[1],"102 (87, 120) %"
same,Mean Cmax higher after morning dose than mid-day and evening doses,[1]; 16 mg,30-33%
same,"Subjects worsened from Baseline, IBS-QOL Overall Score",[2]; Month 3,5%
same,Percentage of Subjects Who Worsened from Baseline: IBS-QOL Overall Score,[2]; Endpoint (last post-Baseline overall score),6%
same,Percentage of Subjects Who Worsened from Baseline: IBS-QOL Overall Score,[2]; Month 3,5%
same,"IBS-QOL body image, treatment difference",[2]; vs placebo,7.43
same,"IBS-QOL dysphoria, treatment difference",[2]; vs placebo,7.34
same,"IBS-QOL food avoidance, treatment difference",[2]; vs placebo,8.92
same,"IBS-QOL health worry, treatment difference",[2]; vs placebo,3.21
same,"IBS-QOL interference with activity, treatment difference",[2]; vs placebo,9.73
same,"IBS-QOL overall score, treatment difference in mean change from Baseline at Endpoint",[2]; vs placebo,7.37
same,"IBS-QOL relationships, treatment difference",[2]; vs placebo,5.19
same,"IBS-QOL sexual, treatment difference",[2]; vs placebo,5.64
same,"IBS-QOL social reaction, treatment difference",[2]; vs placebo,6.19
same,Dose excreted unchanged in urine,[3],less than 1%
same,Intrasubject % CV,[3],23-51%
same,Mean AUC(0-τ) (multiple dose) to AUC(0-inf) (single dose) ratios,[3],81-94%
same,AUC Ratio (90% CI),[3]; 8 mg,"84 (46, 154) %"
same,Cmax Ratio (90% CI),[3]; 8 mg,"82 (42, 160) %"
same,DN-AUC,[3]; 8 mg,14.0 (49) ng · h/mL
same,AUC Ratio (90% CI),[3]; 16 mg,"58 (32, 103) %"
same,Cmax Ratio (90% CI),[3]; 16 mg,"54 (29, 103) %"
same,AUC Ratio (90% CI),"[3]; po, 8 mg","81 (46, 145) %"
same,Cmax Ratio (90% CI),"[3]; po, 8 mg","77 (46, 128) %"
same,AUC Ratio (90% CI),"[3]; po, 16 mg","82 (47, 142) %"
same,Cmax Ratio (90% CI),"[3]; po, 16 mg","79 (49, 130) %"
same,In vivo chiral inversion to KC9945,,no in vivo chiral inversion
same,fraction unbound,[4],0.055
